# Experimental data: ChEMBL document CHEMBL5724914, “Linking interpersonal differences in gut microbiota composition and drug biotransformation activity” (2024)
# Assay: (§1) The drug is tested on Z-009 corresponding to pig gut metagenome with ENA study accession number: PRJEB37062 and ENA sample accession number: ERS12561809 for biotransformation under anaerobic condition. The drug concentrations were measured over 9 timepoints collected between 0 and 24 hours of incubation by liquid-chromatography-coupled mass spectrometry (LC–MS)
# Settings: 2 µM
# Also: call rule not given here.
row,Bacterial Biotransformation,Structure (SMILES)
1,Compound metabolized,CC(=O)Nc1ccc(OC(C)=O)cc1 [DIACETAMATE]
2,Compound metabolized,CCN(CC)CCOC(=O)C1(C2CCCCC2)CCCCC1 [DICYCLOMINE]

# Assay: as §1, with “Z-006” for “Z-009”, “mouse” for “pig”, “ERS12561806” for “ERS12561809”
# Settings: 2 µM
row,Bacterial Biotransformation,Structure (SMILES)
1,Compound metabolized,CC(=O)Nc1ccc(OC(C)=O)cc1 [DIACETAMATE]
2,Compound NOT metabolized,CCN(CC)CCOC(=O)C1(C2CCCCC2)CCCCC1 [DICYCLOMINE]

# Settings: human gut metagenome, 24 h, 2 µM
row,Bacterial Biotransformation,Structure (SMILES)
1,Compound metabolized,CC(=O)Nc1ccc(OC(C)=O)cc1 [DIACETAMATE]
2,Compound metabolized,CCN(CC)CCOC(=O)C1(C2CCCCC2)CCCCC1 [DICYCLOMINE]

# Assay: as §1, with “Z-013” for “Z-009”, “rabbit” for “pig”, “ERS12561813” for “ERS12561809”
# Settings: 2 µM
row,Bacterial Biotransformation,Structure (SMILES)
1,Compound metabolized,CC(=O)Nc1ccc(OC(C)=O)cc1 [DIACETAMATE]
2,Compound NOT metabolized,CCN(CC)CCOC(=O)C1(C2CCCCC2)CCCCC1 [DICYCLOMINE]

# Settings: human gut metagenome, 24 h, 2 µM
# Remark: another data set of the same source
row,Bacterial Biotransformation,Structure (SMILES)
1,Compound metabolized,CC(=O)Nc1ccc(OC(C)=O)cc1 [DIACETAMATE]
2,Compound NOT metabolized,CCN(CC)CCOC(=O)C1(C2CCCCC2)CCCCC1 [DICYCLOMINE]

# Settings: human gut metagenome, 24 h, 2 µM
# Remark: another data set of the same source
row,Bacterial Biotransformation,Structure (SMILES)
1,Compound metabolized,CC(=O)Nc1ccc(OC(C)=O)cc1 [DIACETAMATE]
2,Compound metabolized,CCN(CC)CCOC(=O)C1(C2CCCCC2)CCCCC1 [DICYCLOMINE]

# Settings: human gut metagenome, 24 h, 2 µM
# Remark: another data set of the same source
row,Bacterial Biotransformation,Structure (SMILES)
1,Compound metabolized,CC(=O)Nc1ccc(OC(C)=O)cc1 [DIACETAMATE]
2,Compound NOT metabolized,CCN(CC)CCOC(=O)C1(C2CCCCC2)CCCCC1 [DICYCLOMINE]

# Assay: as §1, with “WLS-052” for “Z-009”, “human” for “pig”, “ERS12561747” for “ERS12561809”
# Settings: 2 µM
row,Bacterial Biotransformation,Structure (SMILES)
1,Compound metabolized,CC(=O)Nc1ccc(OC(C)=O)cc1 [DIACETAMATE]
2,Compound NOT metabolized,CCN(CC)CCOC(=O)C1(C2CCCCC2)CCCCC1 [DICYCLOMINE]

# Assay: as §1, with “Z-004” for “Z-009”, “to” for “to pig gut”, “ERS12561804” for “ERS12561809”
# Settings: 2 µM
row,Bacterial Biotransformation,Structure (SMILES)
1,Compound metabolized,CC(=O)Nc1ccc(OC(C)=O)cc1 [DIACETAMATE]
2,Compound NOT metabolized,CCN(CC)CCOC(=O)C1(C2CCCCC2)CCCCC1 [DICYCLOMINE]

# Settings: human gut metagenome, 24 h, 2 µM
# Remark: another data set of the same source
row,Bacterial Biotransformation,Structure (SMILES)
1,Compound metabolized,CC(=O)Nc1ccc(OC(C)=O)cc1 [DIACETAMATE]
2,Compound NOT metabolized,CCN(CC)CCOC(=O)C1(C2CCCCC2)CCCCC1 [DICYCLOMINE]

# Settings: human gut metagenome, 24 h, 2 µM
# Remark: another data set of the same source
row,Bacterial Biotransformation,Structure (SMILES)
1,Compound metabolized,CC(=O)Nc1ccc(OC(C)=O)cc1 [DIACETAMATE]
2,Compound metabolized,CCN(CC)CCOC(=O)C1(C2CCCCC2)CCCCC1 [DICYCLOMINE]

# Assay: as §1, with “Z-023” for “Z-009”, “to” for “to pig gut”, “ERS12561822” for “ERS12561809”
# Settings: 2 µM
row,Bacterial Biotransformation,Structure (SMILES)
1,Compound metabolized,CC(=O)Nc1ccc(OC(C)=O)cc1 [DIACETAMATE]
2,Compound metabolized,CCN(CC)CCOC(=O)C1(C2CCCCC2)CCCCC1 [DICYCLOMINE]

# Assay: as §1, with “WLS-010” for “Z-009”, “human” for “pig”, “ERS12561743” for “ERS12561809”
# Settings: 2 µM
row,Bacterial Biotransformation,Structure (SMILES)
1,Compound metabolized,CC(=O)Nc1ccc(OC(C)=O)cc1 [DIACETAMATE]
2,Compound metabolized,CCN(CC)CCOC(=O)C1(C2CCCCC2)CCCCC1 [DICYCLOMINE]

# Assay: as §1, with “Z-007” for “Z-009”, “rat” for “pig”, “ERS12561807” for “ERS12561809”
# Settings: 2 µM
row,Bacterial Biotransformation,Structure (SMILES)
1,Compound metabolized,CC(=O)Nc1ccc(OC(C)=O)cc1 [DIACETAMATE]
2,Compound NOT metabolized,CCN(CC)CCOC(=O)C1(C2CCCCC2)CCCCC1 [DICYCLOMINE]

# Settings: human gut metagenome, 24 h, 2 µM
# Remark: another data set of the same source
row,Bacterial Biotransformation,Structure (SMILES)
1,Compound metabolized,CC(=O)Nc1ccc(OC(C)=O)cc1 [DIACETAMATE]
2,Compound metabolized,CCN(CC)CCOC(=O)C1(C2CCCCC2)CCCCC1 [DICYCLOMINE]

# Assay: as §1, with “WLS-073” for “Z-009”, “human” for “pig”, “ERS12561749” for “ERS12561809”
# Settings: 2 µM
row,Bacterial Biotransformation,Structure (SMILES)
1,Compound metabolized,CC(=O)Nc1ccc(OC(C)=O)cc1 [DIACETAMATE]
2,Compound NOT metabolized,CCN(CC)CCOC(=O)C1(C2CCCCC2)CCCCC1 [DICYCLOMINE]

# Settings: human gut metagenome, 24 h, 2 µM
# Remark: another data set of the same source
row,Bacterial Biotransformation,Structure (SMILES)
1,Compound metabolized,CC(=O)Nc1ccc(OC(C)=O)cc1 [DIACETAMATE]
2,Compound metabolized,CCN(CC)CCOC(=O)C1(C2CCCCC2)CCCCC1 [DICYCLOMINE]

# Assay: as §1, with “Z-025” for “Z-009”, “rabbit” for “pig”, “ERS12561824” for “ERS12561809”
# Settings: 2 µM
row,Bacterial Biotransformation,Structure (SMILES)
1,Compound metabolized,CC(=O)Nc1ccc(OC(C)=O)cc1 [DIACETAMATE]
2,Compound NOT metabolized,CCN(CC)CCOC(=O)C1(C2CCCCC2)CCCCC1 [DICYCLOMINE]

# Assay: as §1, with “WLS-350” for “Z-009”, “human” for “pig”, “ERS12561789” for “ERS12561809”
# Settings: 2 µM
row,Bacterial Biotransformation,Structure (SMILES)
1,Compound metabolized,CC(=O)Nc1ccc(OC(C)=O)cc1 [DIACETAMATE]
2,Compound NOT metabolized,CCN(CC)CCOC(=O)C1(C2CCCCC2)CCCCC1 [DICYCLOMINE]

# Assay: as §1, with “Z-022” for “Z-009”, “mouse” for “pig”, “ERS12561821” for “ERS12561809”
# Settings: 2 µM
row,Bacterial Biotransformation,Structure (SMILES)
1,Compound metabolized,CC(=O)Nc1ccc(OC(C)=O)cc1 [DIACETAMATE]
2,Compound metabolized,CCN(CC)CCOC(=O)C1(C2CCCCC2)CCCCC1 [DICYCLOMINE]
